Results taken from paper PMC6148246, “HS-1371, a novel kinase inhibitor of RIP3-mediated necroptosis” (Experimental & Molecular Medicine, 2018).

How the values were obtained:
p-MLKL = experiment: Phospho-MLKL immunofluorescence in HT-29 cells; format: cell-based, human; conditions: HT-29, immunofluorescence
Description: HT-29 cells were fixed in 4% paraformaldehyde for 10 min. To stain phospho-MLKL, cells were permeabilized with 0.25% Triton X-100 for 10 min. After incubation in a blocking buffer (10% fetal bovine serum in DPBS) for 30 min, the primary antibody to phospho-MLKL was incubated overnight at 4 °C, and FITC-conjugated secondary antibody (goat anti-rabbit IgG, 1:250, dilution, Invitrogen) was incubated for 1 h at room temperature. A mounting medium containing DAPI (VECTASHIELD, Cat No. 94010, Vector Laboratories) was used for counterstaining. Representative images were taken by confocal microscope.
HT-29 cells were pretreated with four tested inhibitors for 2 h and then treated with TSZ (6 h for immunoblotting, 24 h for cell death assay). Cell lysates were analyzed by immunoblotting, and cell viability was analyzed by MTT assay or phase-contrast microscopy. The results are presented as the means ± SEM. *P < 0.05, **P < 0.01, ***P < 0.001. b Protection of necroptosis by HS-1371 treatment is similar with dabrafenib, which abolished downstream events. HT-29 cells were pretreated with various necroptosis inhibitors and HS-1371 before TSZ treatment. Cell lysates were analyzed by immunoblotting, and cell viability was analyzed by MTT assay (left panel). Cells were stained with phospho-MLKL antibody and analyzed by confocal fluorescence microscopy (middle panel), and cell death was further analyzed by FACS analysis after PI staining (right panel). c HS-1371 protects cells from TNF-induced necroptosis in a dose-dependent manner. HT-29 cells were pretreated with indicated concentrations of HS-1371 and then treated with TSZ (6 h for immunoblotting, 24 h for cell death assay). Cell lysates were analyzed by immunoblotting, and cell viability was analyzed by MTT assay or phase-contrast microscopy. The results are presented as means ± SEM. *P < 0.05, **P < 0.01, ***P < 0.001 TEXT PRINTED IN THE PICTURE: (b) TSZ: 20.7 | (b) TSZ + Nec-1: 5.8 | (b) TSZ + DAB: 5.5 | (b) TSZ + 1371: 6.8 DOUBTS OF THE COPYIST ABOUT THIS PICTURE: Panel b, flow cytometry plots: the red gate numbers are printed without a measure or unit, so none is given / Panel b: the 'Untreated' control plot prints 7.7; left out because it is not a substance

[1] = tested on: RIP3 or MLKL-deficient cells; experiment: TSZ treatment of RIP3 or MLKL knockdown HT-29 cells (MTT assay); format: cell-based, human; conditions: HT-29 shRIP3 or shMLKL, TSZ 24 h
Description: MISSION short-hairpin RNA (shRNA) plasmids targeting hRIP3 mRNA (NM_006871), hMLKL mRNA (NM_152649), and non-targeting control sequences (NM_027088) were obtained from Sigma-Aldrich. Lentiviral plasmids were transfected into 293TN cells (System Biosciences, LV900A-1) using Lipofectamine 2000 (Invitrogen, 11668019). Pseudoviral particles were collected 2 days after the transfection and infected into cells with polybrene (8 μg/mL). Infected cells were puromycin selected two days after infection, and knockdown was confirmed by immunoblotting.
HT-29 cells expressing RIP3 shRNA, MLKL shRNA, or non-silencing control were analyzed by western blotting (upper panel), and these cells were treated with TSZ (6 h for immunoblotting, 24 h for cell death assay). Cell lysates were analyzed by immunoblotting (middle panel), and cell viability was analyzed by MTT assay (bottom panel). The results are presented as means ± SEM. *P < 0.05, **P < 0.01, ***P < 0.001. b HS-1371 protected cells not only from TNF-induced necroptosis but also from TRAIL-induced necroptosis. […] Cell lysates were analyzed by immunoblotting, and cell viability was analyzed by MTT assay or phase-contrast microscopy. […] Cell lysates were analyzed by immunoblotting, and cell viability was analyzed by MTT assay (TC) or CellTiter-Glo Luminescent Cell Viability Assay Kit (TS). […]

HT-29 cells [2] = experiment: TNF-induced apoptosis in HT-29 cells (TC or TS); format: cell-based, human; conditions: HT-29, 5 μM pretreated 2 h
Description: HT-29 cells expressing RIP3 shRNA, MLKL shRNA, or non-silencing control were analyzed by western blotting (upper panel), and these cells were treated with TSZ (6 h for immunoblotting, 24 h for cell death assay). Cell lysates were analyzed by immunoblotting (middle panel), and cell viability was analyzed by MTT assay (bottom panel). The results are presented as means ± SEM. *P < 0.05, **P < 0.01, ***P < 0.001. b HS-1371 protected cells not only from TNF-induced necroptosis but also from TRAIL-induced necroptosis. HT-29 cells were pretreated with indicated concentrations of HS-1371 and then treated with TRAIL + Smac + zVAD (6 h for immunoblotting, 24 h for cell death assay). Cell lysates were analyzed by immunoblotting, and cell viability was analyzed by MTT assay or phase-contrast microscopy. The results are presented as means ± SEM. *P < 0.05, **P < 0.01, ***P < 0.001. c, d HS-1371 had no effect on TNF-induced apoptosis. HT-29 cells were pretreated with HS-1371 (5 μM) for 2 h and then treated with TC or TS (TNF + either cycloheximide or SMAC mimetic, hereafter referred to as TC or TS, 6 h for immunoblotting, 24 h (TC) or 36 h (TS) for cell death assay). Cell lysates were analyzed by immunoblotting, and cell viability was analyzed by MTT assay (TC) or CellTiter-Glo Luminescent Cell Viability Assay Kit (TS). The results are presented as means ± SEM. *P < 0.05, **P < 0.01, ***P < 0.001

293T cells = experiment: RIP3 overexpression-induced cell death in 293T cells (PI staining); format: cell-based, human; conditions: 293T transfected with Flag-RIP3, 20 h
Description: Fig. 6 Possibility of HS-1371 as a drug for necroptosis-related diseases. a, b HT-29 cells were pre- or post-treated with HS-1371 for indicated time points, and RIP3 phosphorylation (a) and cell death (b) were measured by western blotting or MTT assay. Data are presented as means ± SEM. *P < 0.05, **P < 0.01, ***P < 0.001. c HT-29 cells were treated with TSZ and then post-treated with HS-1371 for indicated time points, and then cell lysates were analyzed by immunoblotting (upper panel). Cell viability was analyzed by MTT assay. Data are presented as means ± SEM. *P < 0.05, **P < 0.01, ***P < 0.001. d Cells were treated with the same conditions as (c), and cell lysates were immunoprecipitated with anti-RIP3 antibody. […] 293T cells were transfected with Flag vector or Flag-RIP3, and 20 h after transfection, cells were stained with PI. PI-positive cells were analyzed by phase-contrast fluorescence microscopy

HT-29 cells [3] = experiment: TRAIL-induced necroptosis in HT-29 cells (immunoblot, MTT); format: cell-based
Description: HT-29 cells expressing RIP3 shRNA, MLKL shRNA, or non-silencing control were analyzed by western blotting (upper panel), and these cells were treated with TSZ (6 h for immunoblotting, 24 h for cell death assay). Cell lysates were analyzed by immunoblotting (middle panel), and cell viability was analyzed by MTT assay (bottom panel). The results are presented as means ± SEM. *P < 0.05, **P < 0.01, ***P < 0.001. b HS-1371 protected cells not only from TNF-induced necroptosis but also from TRAIL-induced necroptosis. HT-29 cells were pretreated with indicated concentrations of HS-1371 and then treated with TRAIL + Smac + zVAD (6 h for immunoblotting, 24 h for cell death assay). Cell lysates were analyzed by immunoblotting, and cell viability was analyzed by MTT assay or phase-contrast microscopy. The results are presented as means ± SEM. *P < 0.05, **P < 0.01, ***P < 0.001. c, d HS-1371 had no effect on TNF-induced apoptosis. HT-29 cells were pretreated with HS-1371 (5 μM) for 2 h and then treated with TC or TS (TNF + either cycloheximide or SMAC mimetic, hereafter referred to as TC or TS, 6 h for immunoblotting, 24 h (TC) or 36 h (TS) for cell death assay). Cell lysates were analyzed by immunoblotting, and cell viability was analyzed by MTT assay (TC) or CellTiter-Glo Luminescent Cell Viability Assay Kit (TS). The results are presented as means ± SEM. *P < 0.05, **P < 0.01, ***P < 0.001 […]

What does the source list for Cc1ccc(Oc2ccnc3cc(-c4cnn(C5CCNCC5)c4)ccc23)cc1 [HS-1371, 7-(1-(Piperidin-4-yl)-1H-pyrazol-4-yl)-4-(p-tolyloxy)quinoline]?
p-MLKL detection / translocation after TSZ (p-MLKL): no detection of p-MLKL; cell viability in RIP3 or MLKL-deficient cells treated with TSZ [1]: did not obviously affect cell viability; apoptosis induced by TNF plus CHX (HT-29 cells [2]; TC 24 h, MTT): did not inhibit; apoptosis induced by TNF plus Smac mimetic (HT-29 cells [2]; TS 36 h, CellTiter-Glo): did not inhibit; cell death by RIP3 ectopic expression (PI-positive staining) (293T cells): completely blocked; TRAIL-induced S227 phosphorylation of RIP3 and RIP3-mediated phosphorylation of MLKL (HT-29 cells [3]; HT-29, TRAIL + Smac mimetic + zVAD 6 h, dose-dependent): decreased; TRAIL-induced cytotoxicity (HT-29 cells [3]; HT-29, TRAIL + Smac mimetic + zVAD 24 h, MTT): reduction in cytotoxicity
